Bounds are passed on as bounds.

As usually defined, the melting point is the temperature, or range, at which the solid turns liquid.

`CC(=O)N(C)c1ccc(C(=O)N2CCN(CCc3ccc(Br)cc3)CC2)cc1` showed a melting point of 161 to 162 °C.

On to `CONc1nc(-c2ccccc2)c2cc(Cl)ccc2n1`, for which the melting point came to 174 °C.

Consider `CC(O)(C#Cc1ccc(C(=O)c2ccccc2)cc1)C(F)(F)F` (centres undefined), for which the melting point lay within 94.5 to 96 °C.

Take `C1=CC(c2ccccc2)Nc2ccccc21` (centres undefined): the melting point turned out to be 75 °C.

Compound `Cn1cc(Br)cc(Nc2cc(C3CC3)n[nH]2)c1=O` yielded a melting point of 203 to 204 °C.

Compound `CCOC(=O)C=Cc1cc(C=CS(=O)(=O)c2ccccc2)cc(Cc2cccnc2)c1` had a melting point of 118 to 120 °C.

As to `Nc1nc(Cl)nc(Cl)c1[N+](=O)[O-]`, the melting point lay within 161 to 162 °C.

In turn, `COC(=O)CCc1ccc(Sc2ccccc2C(=O)O)c([N+](=O)[O-])c1` yielded a melting point of 160 to 161 °C.

The compound `O=C(COc1ccc2ccccc2c1)Nc1ccc(C(=O)C(=O)O)cc1` displayed a melting point of 215 to 216 °C.

Compound `COc1cc(OC)nc(Oc2c(Cl)cccc2C(=O)O)n1` showed a melting point of 151 to 152 °C.

Compound `CC(C)(Oc1ccc(Cl)cc1)C(C)(O)c1cccnc1` (centres undefined) returned a melting point of 140 to 141 °C.

On to `Cc1cccc2c1C(=O)NS2(=O)=O`, for which the melting point lay in the range of 224 to 226 °C.

In the case of `COc1ccc(N2CC(=O)N(CCN)C2=O)cc1OC`, the melting point was in the range of 162 to 164 °C.

In turn, `Cc1nc(-c2ccc(Cl)cc2Cl)c(Br)n1C(F)F` came in with a melting point of 81 to 83 °C.

On to `CCNc1nc(Cl)ccc1C(=O)O`, for which the melting point lay in the range of 158 to 160 °C.

Compound `CCCCCCCCCCC[C@@H]1CC(O)=C(CCCCCC)C(=O)O1` gave a melting point of 106 to 108 °C.

Take `N#Cc1cn(C[C@@H]2CN(c3ccc(N4CCC5(CC4)OCCO5)c(F)c3)C(=O)O2)nn1`: the melting point is 158 to 160 °C.

`CCCOCCOc1ccc(-c2ccc3c(c2)C=C(C(=O)Nc2ccc(CN(C)C4CCOCC4)cc2)CCS3(=O)=O)cc1C` had a melting point of 192 to 195 °C.

Turning to `COc1cc([N+](=O)[O-])c(C)cc1Br`, the melting point lay within 91 to 92 °C.

`COc1cc2c(cc1OC)C1c3ccccc3CCN1C2` (centres undefined): the melting point amounted to 186 °C.

`O=C(Oc1ccccc1)Oc1c2c(nc3ccccc13)CCN(C(=O)Oc1ccccc1)CC2` displayed a melting point of 232 °C.

Regarding `CC(C)Cc1cc(C(N)=O)nn1C`, the melting point is 118 to 120 °C.

As to `CCOC(=O)CC(=CNc1ncccc1C)C(=O)OCC`, the melting point turned out to be 62 °C.

`CC(C)Nc1nc2c(Cl)c(Cl)c(Cl)cc2n1[C@H]1O[C@@H](CO)[C@H](O)[C@@H]1O` had a melting point of 223 to 224 °C.

`O=C(O)c1ccc(OC(=O)c2cccc(C34CC5CC(CC(C5)C3)C4)c2)cc1` gave a melting point of 237 to 239 °C.

As to `Cc1cccc2c(Cl)nc(Cl)nc12`, the melting point fell in the range of 180 to 230 °C.

`Cc1sc(C(=O)O)c(SC(C)C)c1Br` returned a melting point of 132 to 134 °C.

Regarding `O=S(=O)(c1ccccc1)N1CCNc2ncc(I)cc21`, the melting point fell in the range of 145 to 146 °C.

With `Cc1ccc(S(=O)(=O)Nc2ccc([N+](=O)[O-])cc2C)cc1`, the melting point was in the range of 173 to 174 °C.

Turning to `Cc1cc(C)cc(/C=C/c2ccc(O)cc2)c1`, the melting point worked out at 142 °C.

`CCOC(=O)c1c(CBr)cccc1S(N)(=O)=O` had a melting point of 138 to 140 °C.

Compound `CC(C)(CCC#N)c1ccc(C(=O)Nc2cn3c4c(ccc3n2)OCC4)cc1` displayed a melting point of 227 to 228 °C.

The compound `Cn1nnc(-c2ccc3c(c2)S(=O)(=O)c2ccccc2C3=O)n1` had a melting point of 204 to 205 °C.

`Cc1c(F)c(N2CCC(n3ccnn3)C2)c(F)c2c1c(=O)c(C(=O)O)cn2C1CC1` (centres undefined) registered a melting point of 228 to 230 °C.

Compound `O=C1c2cc(F)cc(F)c2-n2c1nc1ccccc1c2=O` displayed a melting point of 287 to 290 °C.

`O=C(Nc1ccc(OCCN2CCOCC2)c2ccccc12)NC1CC1c1ccccc1` (centres undefined) showed a melting point of 156 to 157 °C.

Turning to `CC(C)(CO)NS(=O)(=O)c1ccc(Cl)c(NC(=O)c2cnn3c(C(F)(F)F)cc(-c4ccc(C(F)(F)F)cc4)nc23)c1`, the melting point came to 246 °C.

The compound `Cc1ccc(Sc2nc(F)c(C#N)cc2F)cc1` returned a melting point of 120 to 121 °C.

In turn, `CCOc1c(C23OCC(C)(C)C2(C(C)(C)C)OO3)sc2ccc(O[Si](C)(C)C(C)(C)C)cc12` (centres undefined) had a melting point of 106 to 107 °C.

With `CCOCc1nc2c(N)nc(C)c(C)c2n1NCCCS(C)(=O)=O`, the melting point is 150 to 155 °C.

The compound `O=C1CCC(O)(c2ccc(F)cc2)CC1` had a melting point of 108 to 114 °C.

`COC(=O)Nc1nc2ccc(Sc3ccccc3)cn2c1CN1CCOCC1` registered a melting point of 158 to 182 °C.

For the compound `Nc1nc(NCCN2CCN(C(c3ccccc3)c3ccccc3)CC2)nc(-c2cc(Cl)ccc2Cl)n1`, the melting point lay in the range of 192 to 193 °C.

With `CC[Si](CC)(CC)c1ccccc1S(=O)(=O)NC(=O)Nc1nc(OC)cc(OC)n1`, the melting point was 136 °C.

The compound `Cn1cc(C(=O)NCc2ccc(Cl)cc2)c(=O)c2cc(CN3CCOCC3)cc(I)c21` gave a melting point of 156 to 158 °C.

Regarding `Cc1cccc(C(=O)N(NC(C)C)C(C)(C)C)c1`, the melting point was in the range of 107 to 109 °C.

Take `O=C(O)COc1ccc2cc(-c3oc4ccccc4c3C(=O)c3ccccc3)ccc2c1`: the melting point lay in the range of 178 to 181 °C.

Take `CC(C)(C)c1ccccc1C(O)(c1ccccc1)c1ncc[nH]1` (centres undefined): the melting point lay in the range of 185 to 186 °C.

The compound `COc1cccc(CC(=O)O)c1OCc1cc(OCc2ccc3ccccc3n2)n(C(C)C)n1` gave a melting point of 84 to 85 °C.

In turn, `CCOc1c(Cl)cc(C(C)(C)N2CC(C)=C(c3ccccc3)C2=O)cc1Cl` returned a melting point of 133 to 135 °C.

`CCCCn1c(C)nc(N2CCc3ccccc3CC2)c([N+](=O)[O-])c1=O` displayed a melting point of 158 to 161 °C.

With `C=C[C@@H]1O[C@](C#CC2CC2)(C(F)(F)F)c2c(ccc(F)c2F)NC1=O` (relative stereo), the melting point lay within 171 to 172 °C.

`Cc1nc(N2CCN(CC3CC3(F)F)C2=O)sc1C(=O)O` (centres undefined) returned a melting point of 210 to 215 °C.

Compound `COc1cc(C(C)=O)ccc1OCCCCN1CCN(c2nsc3ccccc23)CC1` returned a melting point of 114 to 116 °C.

The compound `O=C(NC1c2ccccc2-c2[nH]c(=O)c3nccn3c21)c1ccccc1` (centres undefined) returned a melting point of 300 °C.

In turn, `Cc1ccc(S(=O)(=O)NC2CCCCC2NC(=O)OC(C)(C)C)cc1` (centres undefined) came in with a melting point of 137 to 139 °C.

In turn, `COc1ccc2nc(C(=O)NCC(=O)O)c(OCc3ccccc3)cc2c1` showed a melting point of 118 °C.

`O=C(c1ccccc1)c1cccnc1-c1nc(NC2CCCCC2)c2ccccc2n1` displayed a melting point of 204 to 208 °C.

`c1ccc(Nc2nsc3nc4ccccc4n23)nc1` returned a melting point of 156 to 157 °C.

Turning to `CC(=O)c1cc(OCc2ccccc2)cc2c1OC(C)(C)C(=O)N2`, the melting point lay within 148 to 150 °C.

Turning to `CN(C)C=NS(=O)(=O)c1cc(C(C)(C)C)cc(C=O)c1O`, the melting point is 182 to 183 °C.

`Cc1nnc2n1CC(=O)N(C)c1ccc(Cl)cc1-2` yielded a melting point of 228 to 230 °C.

Compound `COc1ccc(-c2nc(/C=C/c3nccn3C)nc3cc(OC)c(OC)cc23)cc1OC` showed a melting point of 180 to 181 °C.

Turning to `COc1ccc(-c2cc(=O)n(Cc3ccc(OC)c(F)c3)nc2-c2ccc(OC)cc2)cc1`, the melting point was 166 to 168 °C.

`COC(=O)CCn1c(=O)[nH][nH]c1=O`: the melting point was 150 to 153 °C.

Turning to `O=C(O)COc1ccc2c(-c3cccc(F)c3F)noc2c1Cl`, the melting point is 183 to 187 °C.

In the case of `ON=C(c1cccs1)c1cccc2nc(N[C@@H]3CCc4ccccc43)ccc12`, the melting point was determined as 180 °C.

Take `Cc1cc(C)c2nc(C)c(NC(=O)Nc3cccc(C(F)(F)F)c3)c(-c3ccccc3Cl)c2c1`: the melting point lay within 146 to 147 °C.

Consider `Cc1ccc(-c2c(C)c(NC(=O)CC(C)(C)C)c(C)c3c2OCC3c2ccc(C(C)C)cc2)nc1` (centres undefined), for which the melting point was 228 to 229 °C.

`Brc1ccc2nc(-c3ccc4ccccc4c3)cn2c1` yielded a melting point of 226 to 228 °C.

`Cc1c(SCc2ccsc2)ccnc1CSc1nc2ccccc2[nH]1` showed a melting point of 161 to 164 °C.

Regarding `COC(=O)C(C)c1ccc(-c2ccccc2[N+](=O)[O-])cc1` (centres undefined), the melting point was in the range of 83 to 86 °C.

Take `O=c1[nH]c(N2CCC(N3CCCCC3)CC2)cc2ccccc12`: the melting point was more than 200 °C.

As to `CCCCCCCCCCCCC/C=C1\C(=O)OCC1(CO)COC(C)=O` (centres undefined), the melting point was determined as 48 °C.

`CCN(CC)CC1CCCCN1CCNC(=O)N1c2ccc(Cl)cc2C(=O)Nc2cccnc21` (centres undefined) gave a melting point of 138 to 140 °C.

In turn, `CCOC(=O)c1cc([N+](=O)[O-])cn1Cc1ccccc1` had a melting point of 73 °C.

`COc1ccc(C(=O)NCc2ccc(C)n2CCC#N)cc1OC`: the melting point lay within 175 to 176 °C.

In turn, `Fc1cc(Cl)c(CCl)cc1-c1ncnc(C(F)F)c1Cl` gave a melting point of 132 to 133 °C.

In turn, `CCC(NS(=O)(=O)c1ccc(Cl)c(Cl)c1)c1cnc(Oc2ccc(F)cc2)n1CC` (centres undefined) gave a melting point of 138 °C.

`N#Cc1c[nH]cc1-c1cccc(C(F)(F)F)c1Cl` gave a melting point of 82 °C.

`O=c1nc(N2CCc3ccccc32)sc2ncccc12` returned a melting point of 249 to 250 °C.

For `COc1ccc(C2=NN(c3ccc(C(=O)N4CCN(c5c(Cl)cncc5Cl)CC4)cc3)C(=O)[C@@H]3CC=CC[C@H]23)cc1OC`, the melting point lay in the range of 137 to 139 °C.

`Cc1ccc(C(=O)Oc2ccc(C(CN(C)C)C3(O)CCCCC3)cc2)cc1` (centres undefined) gave a melting point of 159 to 162 °C.

As for `CCCCNC(=O)c1cc(S(=O)(=O)NC23CC4CC(CC(C4)C2)C3)cc2c1OCCO2`, the melting point is 147 °C.

Turning to `Cc1nc(N2CCN(Cc3nccc4ccccc34)C2=O)sc1C(=O)NCc1cccnc1`, the melting point lay in the range of 151 to 153 °C.

Take `CC(C)(C)OC(=O)N1CCC(c2ccc3oc(-c4ccc(S(C)(=O)=O)cc4F)nc3c2)CC1`: the melting point was in the range of 168 to 171 °C.

For `O=C(Oc1ccc(F)cc1Cl)Oc1ccc(F)cc1Cl`, the melting point was in the range of 91 to 92 °C.

In the case of `CC(C)(C)OC(=O)CCc1nc(C(=O)OC(C)(C)C)ccc1O`, the melting point is 172 to 174 °C.

The compound `OCCCCCCCCCCCCCCCCNCCO` showed a melting point of 80 to 81.2 °C.

The record behind these values is a melting point compilation (Tetko et al.; mined from patent text by program, amines drawn as free bases though some values may be those of a salt).
